In patent publication US20180310561A1 (priority 2015, published 2018):

Tests used:
[1] = test system: Leptosphaeria nodorum; assay: Activity against wheat leaf spots caused by Leptosphaeria nodorum (microtiter plate); format: cell-based; settings: relative growth vs active compound-free control (100%), MTP measured at 405 nm 7 days after inoculation
[2] = test system: Botrytis cinerea; assay: Activity against the grey mold Botrytis cinerea in the microtiterplate test; format: cell-based; settings: relative growth vs active compound-free control (100%), MTP measured at 405 nm 7 days after inoculation
[3] = test system: Fusarium culmorum; assay: Green house: control of culm rot on pearl millet caused by Fusarium culmorum; format: in vivo; settings: 63 ppm spray on pearl millet seedlings; inoculated 7 days later; % diseased leaf area assessed after 6 days; untreated control 90
Protocol: The spray solutions were prepared in several steps:
The stock solution were prepared: a mixture of acetone and/or dimethylsulfoxide and the wetting agent/emulsifier Wettol, which is based on ethoxylated alkylphenoles, in a relation (volume) solvent-emulsifier of 99 to 1 was added to 25 mg of the compound to give a total of 5 ml. Water was then added to total volume of 100 ml.
This stock solution was diluted with the described solvent-emulsifier-water mixture to the given concentration.
Pot-grown pearl millet seedlings were sprayed to run-off with an aqueous suspension, containing the concentration of active ingredient or their mixture as described below.The plants were allowed to air-dry. Seven days later the plants were inoculated with an spore suspension of Fusarium culmorum in a aqueous biomalt solution. Then the trial plants were immediately transferred to a humid chamber. After 6 days at 23-25° C. and a relative humidity close to 100% the extent of fungal attack on the leaves was visually assessed as % diseased leaf area.

[4] = test system: Septoria tritici; assay: Activity against leaf blotch on wheat caused by Septoria tritici (microtiter plate); format: cell-based; settings: relative growth vs active compound-free control (100%), MTP measured at 405 nm 7 days after inoculation
[5] = test system: Alternaria solani; assay: Activity against early blight caused by Alternaria solani (microtiter plate); format: cell-based; settings: relative growth vs active compound-free control (100%), MTP measured at 405 nm 7 days after inoculation
[6] = test system: Pyricularia oryzae; format: cell-based; settings: relative growth vs active compound-free control (100%), MTP measured at 405 nm 7 days after inoculation

## Cc1cc(C2=NC(C)(C)Cc3c(F)cccc32)cnc1C [drawing 1380]
[1]
  Growth (%) at 31 ppm Leptosphaeria nodorum: 39%

## Cc1cc(C2=NC(C)(C)Cc3c(Br)cccc32)cnc1C [I-1, 5-Bromo-1-(5,6-dimethyl-3-pyridyl)-3,3-dimethyl-4H-isoquinoline]
[2]
  Growth (%) at 32 ppm Botottis cinerea: 0%
[3]
  Disease (%) at 63 ppm: 53%
[4]
  Growth (%) at 32 ppm Septona triad: 0%

## Cc1ccc(C2=CC(C)(C)Cc3ccccc32)cc1C
[2]
  Growth (%) at 32 ppm Botottis cinerea: 84%
[4]
  Growth (%) at 32 ppm Septona triad: 93%

## Cc1cc(C2=NC(C)(C)Cc3ccccc32)cnc1C
[1]
  Growth (%) at 31 ppm Leptosphaeria nodorum: 72%
[5]
  Growth (%) at 31 ppm Alternaria solanioryzae: 47%
[6]
  Growth (%) at 31 ppm Pyricularia: 23%

## Cc1cc(C2=NC(C)(C)Cc3c(F)cccc32)cnc1C [drawing 1382]
[3]
  Disease (%) at 63 ppm: 88%
